Measurements reported in EP0039860A1, “Surfactants, their preparation and their use in cosmetic cleansing compositions, and cosmetic cleansing compositions mild to the skin containing them” (Henkel Kommanditgesellschaft auf Aktien, priority 1980, dated 1981).

system: Zein; test: Zein test (skin compatibility: nitrogen solubilised from zein by surfactant solution, micro-Kjeldahl); set-up: species or system Mais; details: 20 %ig surfactant solution, pH 7; 40 ml with 2 g Zein, 1 Stunde, 35° C; lower Zein number = better skin compatibility
Excerpt: Zur Bestimmung der Hautfreundlichkeit der erfindungsgemäßen neuartigen Tenside wurde der Zein-Test durchgeführt. Als Testprodukt diente das Neutralisationsprodukt von Fettalkohol-C12-C14-ether-monoschwefelsäureester mit circa 2 Mol Ethylenoxid mit N-ß-Hydroxyethyl-N-methyl- glucamin (Produkt A). Als Vergleichssubstanzen dienten Nonylbenzolsulfonat (Na-Salz), Natriumlaurylsulfat und Natrium-Fettalkohol-C12-C14-ethersulfat mit 2-Ethylenoxidgruppen im Molekül.
Die bei dem Zeintest erhaltene Zeinzahl gibt an, wieviel mg Stickstoff in 100 ml einer Tensidlösung enthalten sind, wenn diese 1 Stunde lang bei 35° C mit 2 g Zein versetzt wird. Je niedriger die Zeinzahl, um so besser ist die Hautverträglichieit des Produktes. Der Zein-Test wird in der nachfolgend beschriebenen Weise durchgeführt:
1. Ansetzen der Stammlösunsen:
Die 1/20 n Natronlauge wird mit Benzoesäure (DAB 6) eingestellt. Dazu werden circa 40 bis 50 mg Benzoesäure in einen 100 ml Erlenmeyerkolben eingewogen. und in ungefähr 25 ml neutralisiertem Ethylalkohol gelöst. Zum Neutralisieren wird der Alkohol mit einigen Tropfen verdünnter Natronlauge gegen Phenolphthalein bis zur bleibenden Rosafärbung versetzt. Die gelöste Benzoesäure wird nun mit der 1/20 n Natronlauge bis zur bleibenden Rosafärbung titriert und der Faktor berechnet: [drawing 2]
1.2. Schwefelsäure 1/20 n
Aus einer Mikrobürette läßt man 10 ml der 1/20 n Schwefelsäure in einen 100 ml Erlenmeyerkolben einlaufen, gibt 5 Tropfen Tashiro-Indikator hinzu und bringt die Vorlage am Destillierapparat an. In den Destillierkolben gibt man 20 ml 25 %ige Natronlauge, verdünnt mit destilliertem Wasser bis zur Hälfte des Volumens und destilliert 7 bis 10 Minuten. Die Vorlage wird nun abgenommen, und, nachdem mit etwas destilliertem Wasser das in Schwefelsäure eintauchende Glasrohr abgespült wurde, titriert man mit 1/20 n Natronlauge von violett auf blaugrün. Der erhaltene Wert ist der Blind-_ wert, der auch gleichzeitig eine Kontrolle des Destillier-Apparates ist und regelmäßig bestimmt wird. Diese Zahl wird der Berechnung des Stickstoffgehaltes zugrunde gelegt.
[…] Methylrot in 300 ml Ethanol und 0,40 g Methylenblau in 400 ml 50 %igem Ethanol.
1.4. 25 %ige Natronlauge aus NaOH-Plätzchen.
1.5. Das zu prüfende Tensid wird als x-prozentige Lösung mit destilliertem Wasser angesetzt und auf pH 7 eingestellt.
2. Aufbereitung des Zein:
Das verwendete Zein aus Mais (MG 20.000 - 30.000; ~98,5 % Protein) wird im Vakuumtrockenschrank bei maximal 40° C bis zur Gewichtskonstanz getrocknet.
3. Durchführung des Tests:
In eine 50 ml-Enghalsflasche mit Schraubverschluß werden 40 ml Tensidlösung pipettiert und in einem Wasserbad auf 35° C temperiert. […]

Compound | Zein-Zahl [mg Stickstoff in 100 ml]
CCCCCCCCCCCCOS(=O)(=O)O [Natriumlaurylsulfat] | 535
Natrium-Fettalkohol-C12-C14-ethersulfat mit 2-Ethylenoxidgruppen im Molekül [Fettalkohol-C12-C14-ethersulfat mit 2 EO] | 329
Neutralisationsprodukt aus N-β-Hydroxyethyl-N-methylglucamin und Fettalkohol-C12-C14-ethermonoschwefelsäureester mit circa 2 Mol Ethylenoxid | 223
Nonylbenzolsulfonat (Na-Salz) | 620
